This assay concerns the target Bcl-2 protein (Homo sapiens (Human), UniProt P10415). The experiment in a line: Bcl-2 binding TR-FRET (Time-Resolved Fluorescence-Resonance-Energy-Transfer) assay. As to conditions: inhibition constant for binding to Bcl-2 protein. The source says: The smaller the Ki value, the greater is the binding affinity.
In general terms: TR-FRET usually uses a lanthanide donor and a delayed reading to cut background.
Bcl-2 protein, sequence (P10415 whole entry): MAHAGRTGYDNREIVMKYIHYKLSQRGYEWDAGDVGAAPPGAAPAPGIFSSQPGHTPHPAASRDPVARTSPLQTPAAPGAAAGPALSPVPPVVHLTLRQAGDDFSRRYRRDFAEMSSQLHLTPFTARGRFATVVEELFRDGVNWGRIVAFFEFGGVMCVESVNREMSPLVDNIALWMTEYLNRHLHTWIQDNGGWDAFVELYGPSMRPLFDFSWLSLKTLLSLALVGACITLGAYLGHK
A word on the Ki: it is a measure of affinity in units of concentration, obtained from inhibition or displacement. Read a high Ki as weaker binding. Regarding `CC1(C)CCC(CN2CCN(c3ccc(C(=O)NS(=O)(=O)c4ccc(NC5CCN(C6CCC6)CC5)c([N+](=O)[O-])c4)c(Oc4cnc5[nH]ccc5c4)c3)CC2)=C(c2ccc(Cl)cc2)C1` [Compound 140, 4-(4-{[2-(4-chlorophenyl)-4,4-dimethylcyclohex-1-en-1-yl]methyl}piperazin-1-yl)-N-({4-[(1-cyclobutylpiperidin-4-yl)amino]-3-nitrophenyl}sulfonyl)-2-(1H-pyrrolo[2,3-b]pyridin-5-yloxy)benzamide], the inhibition constant Ki is less than 0.01 nM.

The molecule `CC1(C)CCC(CN2CCN(c3ccc(C(=O)NS(=O)(=O)c4ccc(NC5CCN(C6CCOC(C)(C)C6)CC5)c([N+](=O)[O-])c4)c(Oc4cnc5[nH]ccc5c4)c3)CC2)=C(c2ccc(Cl)cc2)C1` (stereo not shown) [Compound 141, 4-(4-{[2-(4-chlorophenyl)-4,4-dimethylcyclohex-1-en-1-yl]methyl}piperazin-1-yl)-N-[(4-{[1-(2,2-dimethyltetrahydro-2H-pyran-4-yl)piperidin-4-yl]amino}-3-nitrophenyl)sulfonyl]-2-(1H-pyrrolo[2,3-b]pyridin-5-yloxy)benzamide] showed an inhibition constant (Ki) of less than 0.01 nM.

`CC1(C)CCC(CN2CCN(c3ccc(C(=O)NS(=O)(=O)c4ccc(NC5CCN(C6CCOC6)CC5)c([N+](=O)[O-])c4)c(Oc4cnc5[nH]ccc5c4)c3)CC2)=C(c2ccc(Cl)cc2)C1` (stereo not shown) [Compound 143, 4-(4-{[2-(4-chlorophenyl)-4,4-dimethylcyclohex-1-en-1-yl]methyl}piperazin-1-yl)-N-({3-nitro-4-[(1-tetrahydrofuran-3-ylpiperidin-4-yl)amino]phenyl}sulfonyl)-2-(1H-pyrrolo[2,3-b]pyridin-5-yloxy)benzamide] registered an inhibition constant (Ki) of less than 0.01 nM.

For the molecule `CC1(C)CCC(CN2CCN(c3ccc(C(=O)NS(=O)(=O)c4ccc(N[C@@H]5CCN(C6CC6)C5)c([N+](=O)[O-])c4)c(Oc4cnc5[nH]ccc5c4)c3)CC2)=C(c2ccc(Cl)cc2)C1` [Compound 144, 4-(4-{[2-(4-chlorophenyl)-4,4-dimethylcyclohex-1-en-1-yl]methyl}piperazin-1-yl)-N-[(4-{[(3R)-1-cyclopropylpyrrolidin-3-yl]amino}-3-nitrophenyl)sulfonyl]-2-(1H-pyrrolo[2,3-b]pyridin-5-yloxy)benzamide], the Ki is less than 0.01 nM.

Turning to `CC1(C)CCC(CN2CCN(c3ccc(C(=O)NS(=O)(=O)c4ccc(NC[C@@H]5CCN(C6CCOCC6)C5)c([N+](=O)[O-])c4)c(Oc4cnc5[nH]ccc5c4)c3)CC2)=C(c2ccc(Cl)cc2)C1` [Compound 145, 4-(4-{[2-(4-chlorophenyl)-4,4-dimethylcyclohex-1-en-1-yl]methyl}piperazin-1-yl)-N-{[3-nitro-4-({[(3S)-1-tetrahydro-2H-pyran-4-ylpyrrolidin-3-yl]methyl}amino)phenyl]sulfonyl}-2-(1H-pyrrolo[2,3-b]pyridin-5-yloxy)benzamide], the Ki was less than 0.01 nM.

Molecule `CC(C)(CO)CNc1ccc(S(=O)(=O)NC(=O)c2ccc(N3CCN(CC4=C(c5ccc(Cl)cc5)CC(C)(C)CC4)CC3)cc2Oc2cnc3[nH]ccc3c2)cc1[N+](=O)[O-]` [Compound 146, 4-(4-{[2-(4-chlorophenyl)-4,4-dimethylcyclohex-1-en-1-yl]methyl}piperazin-1-yl)-N-({4-[(3-hydroxy-2,2-dimethylpropyl)amino]-3-nitrophenyl}sulfonyl)-2-(1H-pyrrolo[2,3-b]pyridin-5-yloxy)benzamide] yielded a Ki of less than 0.01 nM.

In the case of `CC1(C)CCC(CN2CCN(c3ccc(C(=O)NS(=O)(=O)c4ccc(NCC5CCCN(S(C)(=O)=O)C5)c([N+](=O)[O-])c4)c(Oc4cnc5[nH]ccc5c4)c3)CC2)=C(c2ccc(Cl)cc2)C1` (stereo not shown) [Compound 147, 4-(4-{[2-(4-chlorophenyl)-4,4-dimethylcyclohex-1-en-1-yl]methyl}piperazin-1-yl)-N-{[4-({[1-(methylsulfonyl)piperidin-3-yl]methyl}amino)-3-nitrophenyl]sulfonyl}-2-(1H-pyrrolo[2,3-b]pyridin-5-yloxy)benzamide], the Ki is less than 0.01 nM.

`CC(=O)N1CCCC(CNc2ccc(S(=O)(=O)NC(=O)c3ccc(N4CCN(CC5=C(c6ccc(Cl)cc6)CC(C)(C)CC5)CC4)cc3Oc3cnc4[nH]ccc4c3)cc2[N+](=O)[O-])C1` (stereo not shown) [Compound 148, N-[(4-{[(1-acetylpiperidin-3-yl)methyl]amino}-3-nitrophenyl)sulfonyl]-4-(4-{[2-(4-chlorophenyl)-4,4-dimethylcyclohex-1-en-1-yl]methyl}piperazin-1-yl)-2-(1H-pyrrolo[2,3-b]pyridin-5-yloxy)benzamide] returned an inhibitory constant (Ki) of less than 0.01 nM.

In turn, `CC1(C)CCC(CN2CCN(c3ccc(C(=O)NS(=O)(=O)c4ccc(N[C@@H]5CCN(S(C)(=O)=O)C5)c([N+](=O)[O-])c4)c(Oc4cnc5[nH]ccc5c4)c3)CC2)=C(c2ccc(Cl)cc2)C1` [Compound 149, 4-(4-{[2-(4-chlorophenyl)-4,4-dimethylcyclohex-1-en-1-yl]methyl}piperazin-1-yl)-N-[(4-{[(3R)-1-(methylsulfonyl)pyrrolidin-3-yl]amino}-3-nitrophenyl)sulfonyl]-2-(1H-pyrrolo[2,3-b]pyridin-5-yloxy)benzamide] displayed an inhibition constant (Ki) of less than 0.01 nM.

Consider `CC1(C)CCCC(CN2CCN(c3ccc(C(=O)NS(=O)(=O)c4ccc(NCC5CCOCC5)c([N+](=O)[O-])c4)c(Oc4cnc5[nH]ccc5c4)c3)CC2)=C1c1ccc(Cl)cc1` [Compound 150, 4-(4-{[2-(4-chlorophenyl)-3,3-dimethylcyclohex-1-en-1-yl]methyl}piperazin-1-yl)-N-({3-nitro-4-[(tetrahydro-2H-pyran-4-ylmethyl)amino]phenyl}sulfonyl)-2-(1H-pyrrolo[2,3-b]pyridin-5-yloxy)benzamide], for which the Ki was less than 0.01 nM.

`CC1(C)CCC(CN2CCN(c3ccc(C(=O)NS(=O)(=O)c4ccc(NCC5CCN(S(C)(=O)=O)C5)c([N+](=O)[O-])c4)c(Oc4cnc5[nH]ccc5c4)c3)CC2)=C(c2ccc(Cl)cc2)C1` (stereo not shown) [Compound 152, 4-(4-{[2-(4-chlorophenyl)-4,4-dimethylcyclohex-1-en-1-yl]methyl}piperazin-1-yl)-N-{[4-({[1-(methylsulfonyl)pyrrolidin-3-yl]methyl}amino)-3-nitrophenyl]sulfonyl}-2-(1H-pyrrolo[2,3-b]pyridin-5-yloxy)benzamide] displayed a Ki of less than 0.01 nM.

With `CC(=O)N1CCC(CNc2ccc(S(=O)(=O)NC(=O)c3ccc(N4CCN(CC5=C(c6ccc(Cl)cc6)CC(C)(C)CC5)CC4)cc3Oc3cnc4[nH]ccc4c3)cc2[N+](=O)[O-])C1` (stereo not shown) [Compound 153, N-[(4-{[(1-acetylpyrrolidin-3-yl)methyl]amino}-3-nitrophenyl)sulfonyl]-4-(4-{[2-(4-chlorophenyl)-4,4-dimethylcyclohex-1-en-1-yl]methyl}piperazin-1-yl)-2-(1H-pyrrolo[2,3-b]pyridin-5-yloxy)benzamide], the Ki was less than 0.01 nM.

As to `CC(=O)N1CC[C@@H](Nc2ccc(S(=O)(=O)NC(=O)c3ccc(N4CCN(CC5=C(c6ccc(Cl)cc6)CC(C)(C)CC5)CC4)cc3Oc3cnc4[nH]ccc4c3)cc2[N+](=O)[O-])C1` [Compound 154, N-[(4-{[(3R)-1-acetylpyrrolidin-3-yl]amino}-3-nitrophenyl)sulfonyl]-4-(4-{[2-(4-chlorophenyl)-4,4-dimethylcyclohex-1-en-1-yl]methyl}piperazin-1-yl)-2-(1H-pyrrolo[2,3-b]pyridin-5-yloxy)benzamide], the inhibition constant (Ki) is less than 0.01 nM.

The values are drawn from patent US10213433B2 (AbbVie Inc., priority 2010, dated 2019).
